From the NIST ThermoML archive (doi:10.1016/j.jct.2016.01.001)

Assay: mn = molality of the nth substance listed, in mol/kg
Settings: 298.15 K, Ring tensiometer

CC(C)Cc1ccc(C(C)C(=O)[O-])cc1.[Na+] (stereo not drawn) [sodium ibuprofen] + O
Settings	surface tension liquid-gas [mN/m]
m1 = 0.0022	62.35
m1 = 0.00438	60.76
m1 = 0.00873	58.91
m1 = 0.0216	54.52
m1 = 0.032	51.62
m1 = 0.0423	48.38
m1 = 0.0524	45.51
m1 = 0.0671	42.39
m1 = 0.0815	40.24
m1 = 0.1	38.27
m1 = 0.118	36.11
m1 = 0.135	34.85
m1 = 0.16	33.01
m1 = 0.183	32.02
m1 = 0.206	31.74
m1 = 0.227	31.72
m1 = 0.247	31.73
m1 = 0.267	31.72
